Experimental data published in US11407768B2, “AMPK activators” (Kallyope, Inc., priority 2020, dated 2022).

These compounds were tested against Recombinant AMPK α1/β1/γ1 complex (Homo sapiens (Human), UniProt Q13131+Q9Y478) (assay: In vitro pAMPK1 kinase activation assay (ADP-Glo, SAMS peptide)). Details: AMPK α1/β1/γ1 pre-activated with CAMKK2; 12-point curve; 15 min compound incubation.
Type: biochemical
Protocol: Compound effect on AMPK enzyme activation was determined in a cell-free format with a 12-point concentration curve. The ADP-Glo detection system was used to determine phosphorylation of a SAMS peptide substrate. Recombinant AMPK α1/β1/γ1 complex was pre-activated by phosphorylation with CAMKK2 followed by incubated with compound for 15 minutes prior to the SAMS phosphorylation reaction. Activity curves and EC50 values were fitted by interpolation to an ATP:ADP standard curve as indicated by the ADP-Glo manufacturer using Prism software.

Sequence of Recombinant AMPK α1/β1/γ1 complex (Q13131 whole entry): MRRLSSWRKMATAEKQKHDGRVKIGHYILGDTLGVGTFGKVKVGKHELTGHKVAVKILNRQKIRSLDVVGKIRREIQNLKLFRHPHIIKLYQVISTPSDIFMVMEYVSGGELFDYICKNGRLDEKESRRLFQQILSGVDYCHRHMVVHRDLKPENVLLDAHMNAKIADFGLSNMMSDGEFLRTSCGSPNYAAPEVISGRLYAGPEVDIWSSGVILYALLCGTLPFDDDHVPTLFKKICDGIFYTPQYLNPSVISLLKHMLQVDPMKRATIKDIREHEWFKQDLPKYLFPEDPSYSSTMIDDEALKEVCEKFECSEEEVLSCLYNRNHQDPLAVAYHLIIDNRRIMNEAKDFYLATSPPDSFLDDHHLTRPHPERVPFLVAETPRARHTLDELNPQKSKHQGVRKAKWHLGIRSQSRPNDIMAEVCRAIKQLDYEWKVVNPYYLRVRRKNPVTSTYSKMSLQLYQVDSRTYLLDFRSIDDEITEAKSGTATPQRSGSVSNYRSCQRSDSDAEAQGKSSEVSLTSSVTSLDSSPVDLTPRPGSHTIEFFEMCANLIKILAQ
Sequence of Recombinant AMPK α1/β1/γ1 complex (Q9Y478 whole entry): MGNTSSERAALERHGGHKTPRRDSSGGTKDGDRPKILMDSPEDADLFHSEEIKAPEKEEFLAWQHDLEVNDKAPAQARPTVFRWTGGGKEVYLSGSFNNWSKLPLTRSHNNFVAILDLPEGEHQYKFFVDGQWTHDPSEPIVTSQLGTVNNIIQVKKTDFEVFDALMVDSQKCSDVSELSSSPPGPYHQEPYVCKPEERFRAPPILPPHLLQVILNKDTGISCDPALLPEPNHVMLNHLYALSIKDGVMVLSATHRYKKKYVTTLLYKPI
Sequence of Recombinant AMPK α1/β1/γ1 complex (P54619 whole entry partner): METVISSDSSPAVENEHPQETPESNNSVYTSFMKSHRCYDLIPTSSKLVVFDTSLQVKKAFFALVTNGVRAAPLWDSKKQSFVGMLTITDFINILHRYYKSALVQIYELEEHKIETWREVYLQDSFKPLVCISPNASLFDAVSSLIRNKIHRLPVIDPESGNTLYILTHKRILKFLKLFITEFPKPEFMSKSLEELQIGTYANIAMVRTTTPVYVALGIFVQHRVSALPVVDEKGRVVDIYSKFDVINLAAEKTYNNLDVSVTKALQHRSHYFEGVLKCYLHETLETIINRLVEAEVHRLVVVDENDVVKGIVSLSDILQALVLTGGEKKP

Structure (SMILES)	EC50 [nM]
O=P(O)(O)c1ccc(-c2ccc(-c3nc4nc(O[C@@H]5CO[C@@H](CO)[C@@H]5O)[nH]c4cc3Cl)cc2)cc1 [Compound 68, (4′-(6-chloro-2-(((3R,4S,5S)-4-hydroxy-5-(hydroxymethyl)tetrahydrofuran-3-yl)oxy)-1H-imidazo[4,5-b]pyridin-5-yl)-[1,1′-biphenyl]-4-yl)phosphonic acid]	> 10000
O=P(O)(O)c1ccc(-c2ccc(-c3nc4nc(O[C@H]5CO[C@H](CO)[C@H]5O)[nH]c4cc3Cl)cc2)cc1 [Compound 45, (4′-(6-chloro-2-(((3S,4R,5R)-4-hydroxy-5-(hydroxymethyl)tetrahydrofuran-3-yl)oxy)-1H-imidazo[4,5-b]pyridin-5-yl)-[1,1′-biphenyl]-4-yl)phosphonic acid]	> 10000
OCCOCC1CN(Cc2ccc(-c3ccc(-c4cc5nc(O[C@@H]6CO[C@H]7[C@@H]6OC[C@H]7O)[nH]c5cc4Cl)cc3)cc2)C1 [Compound 50]	1.46
CN(CCOCCO)S(=O)(=O)c1ccc(-c2ccc(-c3cc4nc(O[C@@H]5CO[C@H]6[C@@H]5OC[C@H]6O)[nH]c4cc3Cl)cc2)cc1 [Compound 72]	1.38
CN(CCOCCO)C(=O)c1ccc(-c2ccc(-c3cc4nc(O[C@@H]5CO[C@H]6[C@@H]5OC[C@H]6O)[nH]c4cc3Cl)cc2)cc1 [Compound 48, 4′-(6-chloro-2-(((3R,3aR,6R,6aR)-6-hydroxyhexahydrofuro[3,2-b]furan-3-yl)oxy)-1H-benzo [d]imidazol-5-yl)-N-(2-(2-hydroxyethoxy)ethyl)-N-methyl-[1,1′-biphenyl]-4-carboxamide]	1.16
CN(CCS(=O)(=O)O)C(=O)c1ccc(-c2ccc(-c3nc4nc(O[C@@H]5CO[C@H]6[C@@H]5OC[C@H]6O)[nH]c4cc3Cl)cc2)cc1 [Compound 8, 2-(4′-(6-chloro-2-(((3R,3aR,6R,6aR)-6-hydroxyhexahydrofuro[3,2-b]furan-3-yl)oxy)-1H-imidazo[4,5-b]pyridin-5-yl)-N-methyl-[1,1′-biphenyl]4-carboxamido)ethane-1-sulfonic acid]	1.78
O[C@@H]1CO[C@H]2[C@@H]1OC[C@H]2Oc1nc2cc(-c3ccc(-c4ccc(CN5C[C@H](O)[C@@H](O)C5)cc4)cc3)c(Cl)cc2[nH]1 [Compound 64]	1.4
O[C@@H]1CO[C@H]2[C@@H]1OC[C@H]2Oc1nc2cc(-c3ccc(-c4ccc(CN5CCNCC5)cc4)cc3)c(Cl)cc2[nH]1 [Compound 49, (3R,3aR,6R,6aR)-6-((6-chloro-5-(4′-(piperazin-1-ylmethyl)-[1,1′-biphenyl]-4-yl)-1H-benzo[d]imidazol-2-yl)oxy)hexahydrofuro[3,2-b]furan-3-ol]	1.76
OCC1CN(Cc2ccc(-c3ccc(-c4cc5nc(O[C@@H]6CO[C@H]7[C@@H]6OC[C@H]7O)[nH]c5cc4Cl)cc3)cc2)C1 [Compound 63, (3R,3aR,6R,6aR)-6-((6-chloro-5-(4′((3-(hydroxymethyl)azetidin-1-yl)methyl)-[1,1′-biphenyl]-4-yl)-1H-benzo[d]imidazol-2-yl)oxy)hexahydrofuro[3,2-b]furan-3-ol]	1.09
O[C@@H]1CCN(Cc2ccc(-c3ccc(-c4cc5nc(O[C@@H]6CO[C@H]7[C@@H]6OC[C@H]7O)[nH]c5cc4Cl)cc3)cc2)C1 [Compound 59, (R)-1-((4′-(6-chloro-2-(((3R,3aR,6R,6aR)-6-hydroxyhexahydrofuro[3,2-b]furan-3-yl)oxy)-1H-benzo[d]imidazol-5-yl)-[1,1′-biphenyl]-4-yl)methyl)pyrrolidin-3-ol]	1.04
O=C(CCCNCc1ccc(-c2ccc(-c3cc4nc(O[C@@H]5CO[C@H]6[C@@H]5OC[C@H]6O)[nH]c4cc3Cl)cc2)cc1)NCCO [Compound 37, 4-(((4′-(6-chloro-2-(((3R,3aR,6R,6aR)-6-hydroxyhexahydrofuro[3,2-b]furan-3-yl)oxy)-1H-benzo[d]imidazol-5-yl)-[1,1′-biphenyl]-4-yl)methyl)amino)-N-(2-hydroxyethyl)butanamide]	3.6
O=S(=O)(O)c1ccc(-c2ccc(-c3nc4nc(O[C@@H]5CO[C@H]6[C@@H]5OC[C@H]6O)[nH]c4cc3Cl)cc2)cc1 [Compound 69, 4′-(6-chloro-2-(((3R,3aR,6R,6aR)-6-hydroxyhexahydrofuro[3,2-b]furan-3-yl)oxy)-1H-imidazo[4,5-b]pyridin-5-yl)-[1,1′-biphenyl]-4-sulfonic acid]	1.84
O=C(CCCNCc1ccc(-c2ccc(-c3cc4nc(O[C@@H]5CO[C@H]6[C@@H]5OC[C@H]6O)[nH]c4cc3Cl)cc2)cc1)NC(CO)CO [Compound 38, 4-(((4′-(6-chloro-2-(((3R,3aR,6R,6aR)-6-hydroxyhexahydrofuro[3,2-b]furan-3-yl)oxy)-1H-benzo[d]imidazol-5-yl)-[1,1′-biphenyl]-4-yl)methyl)amino)-N-(1,3-dihydroxypropan-2-yl)butanamide]	2.4
NCC1CN(Cc2ccc(-c3ccc(-c4cc5nc(O[C@@H]6CO[C@H]7[C@@H]6OC[C@H]7O)[nH]c5cc4Cl)cc3)cc2)C1 [Compound 67, (3R,3aR,6R,6aR)-6-((5-(4′-((3-(aminomethyl)azetidin-1-yl)methyl)-[1,1′-biphenyl]-4-yl)-6-chloro-1H-benzo[d]imidazol-2-yl)oxy)hexahydrofuro[3,2-b]furan-3-ol]	0.93
O=P(O)(O)c1ccc(-c2ccc(-c3nc4nc(O[C@H]5CO[C@H](CO)[C@@H](O)C5)[nH]c4cc3Cl)cc2)cc1 [Compound 12, (4′-(6-chloro-2-(((3R,5S,6R)-5-hydroxy-6-(hydroxymethyl)tetrahydro-2H-pyran-3-yl)oxy)-1H-imidazo[4,5b]pyridin-5-yl)-[1,1′-biphenyl]-4-yl)phosphonic acid]	152
O=C(NCC(CS(=O)(=O)O)c1ccc(Cl)cc1)c1ccc(-c2ccc(-c3nc4nc(O[C@@H]5CO[C@H]6[C@@H]5OC[C@H]6O)[nH]c4cc3Cl)cc2)cc1 (stereo partly drawn) [Compound 7, 3-(4′-(6-chloro-2-(((3R,3aR,6R,6aR)-6-hydroxyhexahydrofuro[3,2-b]furan-3-yl)oxy)-1H-imidazo[4,5-b]pyridin-5-yl)-[1,1′-biphenyl]-4-carboxamido)-2-(4-chlorophenyl)propane-1-sulfonic acid]	1.22

Stronger by EC50, values ahead:

EC50 [nM]	Structure (SMILES)
0.86	O=C(NCCS(=O)(=O)O)c1ccc(-c2ccc(-c3nc4nc(O[C@@H]5CO[C@H]6[C@@H]5OC[C@H]6O)[nH]c4cc3Cl)cc2)cc1 [Compound 5, 2-(4′-(6-chloro-2-(((3R,3aR,6R,6aR)-6-hydroxyhexahydrofuro[3,2-b]furan-3-yl)oxy)-1H-imidazo[4,5-b]pyridin-5-yl)-[1,1′-biphenyl]-4-ylcarboxamido)ethanesulfonic acid]
0.72	OCCN1CCN(Cc2ccc(-c3ccc(-c4nc5nc(O[C@@H]6CO[C@H]7[C@@H]6OC[C@H]7O)[nH]c5cc4Cl)cc3)cc2)CC1 [Compound 51, (3R,3aR,6R,6aR)-6-((6-chloro-5-(4′-((4-(2-hydroxyethyl)piperazin-1-yl)methyl)-[1,1′-biphenyl]-4-yl)-1H-imidazo[4,5-b]pyridin-2-yl)oxy)hexahydrofuro[3,2-b]furan-3-ol]
0.63	O=C(O)C(O)CNCc1ccc(-c2ccc(-c3nc4nc(O[C@@H]5CO[C@H]6[C@@H]5OC[C@H]6O)[nH]c4cc3Cl)cc2)cc1 (stereo partly drawn) [Compound 22, 3-(((4′-(6-chloro-2-(((3R,3aR,6R,6aR)-6-hydroxyhexahydrofuro[3,2-b]furan-3-yl)oxy)-1H-imidazo[4,5-b]pyridin-5-yl)-[1,1′-biphenyl]-4-yl)methyl)amino)-2-hydroxypropanoic acid]
0.62	O=C(NCCCS(=O)(=O)O)c1ccc(-c2ccc(-c3nc4nc(O[C@@H]5CO[C@H]6[C@@H]5OC[C@H]6O)[nH]c4cc3Cl)cc2)cc1 [Compound 6, 3-(4′-(6-chloro-2-(((3R,3aR,6R,6aR)-6-hydroxyhexahydrofuro[3,2-b]furan-3-yl)oxy)-1H-imidazo[4,5-b]pyridin-5-yl)-[1,1′-biphenyl]-4-carboxamido)propane-1-sulfonic acid]
0.57	OCC1(CO)CCN(Cc2ccc(-c3ccc(-c4nc5nc(O[C@@H]6CO[C@H]7[C@@H]6OC[C@H]7O)[nH]c5cc4Cl)cc3)cc2)CC1 [Compound 54, (1((4′-(6-chloro-2-(((3R,3aR,6R,6aR)-6-hydroxyhexahydrofuro[3,2-b]furan-3-yl)oxy)-1H-imidazo[4,5-b]pyridin-5-yl)-[1,1′-biphenyl]-4-yl)methyl)piperidine-4,4-diyl)dimethanol]
0.37	O=C(NCCOCCO)c1ccc(-c2ccc(-c3cc4nc(O[C@@H]5CO[C@H]6[C@@H]5OC[C@H]6O)[nH]c4cc3Cl)cc2)c(O)c1 [Compound 75, 4′-(6-chloro-2-(((3R,3aR,6R,6aR)-6-hydroxyhexahydrofuro[3,2-b]furan-3-yl)oxy)-1H-benzo[d]imidazol-5-yl)-2-hydroxy-N-(2-(2-hydroxyethoxy)ethyl)-[1,1′-biphenyl]-4-carboxamide]
0.23	OCC(CO)(CO)NCc1ccc(-c2ccc(-c3nc4nc(O[C@@H]5CO[C@H]6[C@@H]5OC[C@H]6O)[nH]c4cc3Cl)cc2)cc1 [Compound 53, 2-(((4′-(6-chloro-2-(((3R,3aR,6R,6aR)-6-hydroxyhexahydrofuro[3,2-b]furan-3-yl)oxy)-1H-imidazo[4,5-b]pyridin-5-yl)-[1,1′-biphenyl]-4-yl)methyl)amino)-2-(hydroxymethyl)propane-1,3-diol]
0.15	OCCOCCNCc1ccc(-c2ccc(-c3cc4nc(O[C@@H]5CO[C@H]6[C@@H]5OC[C@H]6O)[nH]c4cc3Cl)cc2)c(O)c1 [Compound 74]
0.09	O=S(=O)(NC[C@H](O)[C@@H](O)[C@H](O)[C@H](O)CO)c1ccc(-c2ccc(-c3nc4nc(O[C@@H]5CO[C@H]6[C@@H]5OC[C@H]6O)[nH]c4cc3Cl)cc2)cc1 [Compound 3, 4′-(6-chloro-2-(((3R,3aR,6R,6aR)-6-hydroxyhexahydrofuro[3,2-b]furan-3-yl)oxy)-1H-imidazo [4,5-b]pyridin-5-yl)-N-((2S,3R,4R,5R)-2,3,4,5,6-pentahydroxyhexyl)-[1,1′-biphenyl]-4-sulfonamide]
